{
  "source": "patent US12678425B2",
  "about": "“Methods for treating against viruses” (Howard University, priority 2019, dated 2026)",
  "key": {"HEp-2 cells": {"system": "HEp-2 cells", "test": "Trypan blue exclusion cell viability", "format": "cell-based", "details": "24-hour treatment", "experimental": "In order to assess whether the compounds are producing any toxicity that can led to the cell deaths, we evaluated the cell viability by the trypan blue exclusion method. As long-term inhibition of RACK1 expression has been reported to cell cycle arrest, we limited our experimental treatments to 24 h and evaluated the cell viability of almost full confluent cells after 24 h of compound treatment.\nIn table 2, the viability of cells was measured with Trypan blue exclusion assay in a Cellometer (Nexcelom, Lawrence, MA). The percentage survival of the compound treated cells was evaluated along with the DMSO treated cells. The values represent the mean f SE of three separate well based replicates."}, "HSV-1 strain 17": {"system": "HSV-1 strain 17", "test": "Plaque formation unit (pfu) assay in HEp-2 cells", "description": "The viral plaque assay was performed as previously described (Tang et al. “Determination of minimum herpes simplex virus type 1 components necessary to localize transcriptionally active DNA to ND10,” J. Virol. 2003; 77:5821-28), with slight modifications. The HSV-1 strain 17 was diluted serially in a volume of 1 mL. Then 300 ul of the virus was added onto confluent HEp-2 cell monolayers in 12-well plates; each dilution had 3 wells. After adsorption for 2 h, the medium was removed and the cells were washed twice with serum-free DMEM and overlaid with phenol-free DMEM containing 5% FCS, 0.5% low-melting point agarose (GIBCO), and 1% penicillin-streptomycin. The cells were incubated at 370 C for 48 hours. Neutral red was added on the agarose to stain the live cells. The plaques were counted and reported as pfu per mL. Mean pfu was determined after averaging the number of pfu from different dilutions."}, "HSV-1": {"system": "HSV-1", "test": "Protection from HSV-1 cytopathic effect in HEp-2 cells (microscopy)", "format": "cell-based", "details": "different concentrations, 24 h", "text": "FIG. 15 depicts the results of in vitro testing to confirm the protective effect of a representative compound (SD-29-14) from the cytopathic effect caused by HSV-1. […] After washing away the virus with PBS, images were taken under a compound microscope."}, "HSV-1 ICP0 protein": {"system": "HSV-1 ICP0 protein", "test": "Immunofluorescence and confocal microscopy of ICP0 in Hep-2 cells", "format": "cell-based", "details": "10 μM, HSV-1 MOI 1.0, 30 h", "experimental": "The HEp-2 cells were infected with HSV-1 at an MOI of 1.0 for 30 h along with the indicated compounds and control. The cells were fixed with 4% paraformaldehyde and stained with anti-ICPO-FITC in green and DAPI (blue for DNA label in the nucleus). The slides were observed under a Nikon confocal microscope (60× magnification lens) and pictures were taken to show infected cells (green) and total cells (DAPI). All scale bars correspond to 20 μm. The imaging experiments were performed three independent times, and the results as shown are representative of one of three experiments.\nHep-2 cells were grown to about 80% confluency in 12 well plate and the cells were co-infected with HSV-1 at an MOI of 1.0 for 30 h along with the indicated inhibitor compounds and control. The cells were fixed at room temperature with 4% paraformaldehyde-PBS for 15 minutes and then permeabilized at room temperature by 0.5% Triton X-100-PBS (pH 7.4) for 10 min. The cells were then washed 3× with Ice cold PBS. The cells were incubated with 1% BSA, 22.52 mg/mL glycine in PBST (PBS+0.1% Tween 20) for 30 min to block unspecific binding of the antibodies. The cells were incubated in the 1:500 diluted anti-ICP0 antibody in 1% BSA in PBST in a humidified chamber overnight at 4° C. […]"}, "[1]": {"system": "Hep-2 cells infected with HSV-1", "test": "Fluorescence cell sort in Cellometer, HSV-1 infected Hep-2 cells", "format": "cell-based, human", "details": "24-h incubation, HSV-1 MOI 1.0", "experimental": "FIG. 13 depicts the quantification of fluorescent cells by Image based cell sorting in a Cellometer (Nexcelom Vision), based on the experiments depicted in FIG. 12. […] The cells were prepared by immunostaining with ICP0 antibody after 24-h incubation with the indicated compounds. The total cell counts were 1.01×10^6/ml, 4.69×10^6/ml, and 5.36×10^6/ml for DMSO, SD29-14 (10 μM), and SD29-14 (100 μM) respectively. The numbers show the mean f SE of three replicates.\nFluorescence Cell Sort: Hep-2 cells were grown to about 80% confluency in T25 Cell culture flask and were co-infected with HSV-1 at a MOI of 1.0 for 24 h along with the indicated inhibitor compounds and control. After trypsinization, the cells were fixed in 4% paraformaldehyde-PBS. The cells were treated in the same method as described in the immunofluorescence and confocal microscopy method section. The labeled cells were counted in a Nexcelom Vision Cellometer equipped with Brightfield & 2 Fluorescence Channels Filter Set 101: Excitation/Emission Peak: 475 nm/535 nm and Filter Set 202: Excitation/Emission Peak: 525 nm/595 nm. […] Bright-field and fluorescent images were then captured and analyzed at four different locations by the Cellometer image analysis software to directly determine the cell concentration of fluorescently labelled cells. […]"}, "Human Annexin A2": {"system": "Human Annexin A2", "test": "LC-MS of Annexin A2 abundance after compound treatment", "format": "cell-based", "parameters": "Annexin A2 fragment abundance: reference not given here", "details": "for Abundance ratio 1: SD29-14 over DMSO (10 uM); for Abundance ratio 2: SD29-14 over DMSO (100 uM)", "experimental": "To further confirm this mechanism of action, LC-MS (Liquid Chromatography-Mass Spectrometry) was conducted to determine the effect of RACK1 inhibition on ANXA2 expression."}, "[2]": {"system": "RACK1A Y248 phosphorylation", "test": "Immunoblot of ABA-induced RACK1A Y248 phosphorylation in seedlings", "format": "cell-based, Arabidopsis", "details": "10 μM ABA, 12 hours"}, "RACK1 protein expression": {"system": "RACK1 protein expression", "test": "Immunoblot of RACK1 expression under salt stress", "excerpt": "The abundant leaf protein Rubisco large subunit (RbcL) was used as a loading control for the blot.\nAs the antibody cross-reacts with all three RACK1 isoforms in Arabidopsis, we used the double knockout (rack1ab) as a negative control on the blot (triple mutant is lethal at the early seedling stage). The large subunit of the abundant leaf protein rubisco (RbcL) was used as loading control for this blot."}, "RACK1": {"biological_target": "T1, RACK1 (Homo sapiens, UniProt P63244)", "T1 construct": "endogenous in cells; host or cells: HEp-2 cells (ATCC), infected with HSV-1", "test": "Western blot of RACK1 in pre-treated, HSV-1 infected HEp-2 cells", "format": "cell-based", "details": "100 μM, 24 hours pre-treatment, 24 h post infection", "experimental": "(§1) Panel A of FIG. 8 depicts time and concentration dependent virus protein expression to deduce an optimum drug treatment regimen. […] Tubulin expression was used as the loading control for the blots.\n(§2) Proteins were separated by SDS-PAGE (25 μg loaded in each lane), transferred to nitrocellulose membranes (Amersham Inc., Piscataway, NJ, USA), and blocked with 5% nonfat milk for 60 min at room temperature. Membranes were incubated overnight at 4° C. with primary antibody, followed by incubation with a horseradish peroxidase-coupled secondary antibody and detection with enhanced chemiluminescence (Pierce, Rockford, IL, USA), according to standard methods. Membranes were stripped with stripping buffer (100 mM 2-mercaptoethanol, 2% SDS, 62.5 mM Tris-HCl, pH 6.8), washed with PBS-0.1% Tween-20, and used to detect additional proteins. For Arabidopsis lysates one-week old seedlings were treated with 10 uM of ABA in the presence/absence of the inhibitor compounds for 12 hours in a growth chamber (overnight) at 22° C. mostly in the dark. Lysates were isolated in lysis buffer (Cell Signaling, Danvers, MA) supplemented with plant protease inhibitor (Sigma-Aldrich), phosphatase inhibitor cocktail A and B (Santa Cruz Biotechnology, Dallas, TX), and N-Ethylamaleimide (Sigma-Aldrich, St. Louis, MO). […]"}, "[3]": {"system": "HSV-1 proteins (ICP0, ICP8, gD)", "test": "Western blot of HSV-1 proteins in pre-treated HEp-2 cells", "format": "cell-based", "details": "100 μM, 24 hours pre-treatment, 24 h post infection", "experimental": "as §1, §2"}},
  "data": [
    {"smiles": "COc1ccc(-c2nnc(SCC(=O)O)n2N)cc1", "note": "[SD-29-12]", "values": [
      {"measurement": "HEp-2 Cell viability, Mean (percentage survival)", "setting": "HEp-2 cells; 10 μM", "value": 92.7, "unit": "%"},
      {"measurement": "HEp-2 Cell viability, Mean (percentage survival)", "setting": "HEp-2 cells; 100 μM", "value": 97.7, "unit": "%"},
      {"measurement": "Plaque formation unit (pfu)", "setting": "HSV-1 strain 17; 0 hpl", "value": "0 ± 0", "unit": "PFU/mL"},
      {"measurement": "Plaque formation unit (pfu)", "setting": "HSV-1 strain 17; 6 hpl", "value": "3.8 ± 0.07 × 10^2 PFU/mL"},
      {"measurement": "Plaque formation unit (pfu)", "setting": "HSV-1 strain 17; 12 hpl", "value": "3.6 ± 0.04 × 10^3 PFU/mL"},
      {"measurement": "Plaque formation unit (pfu)", "setting": "HSV-1 strain 17; 24 hpl", "value": "2.6 ± 0.03 × 10^6 PFU/mL"}
    ]},
    {"smiles": "Nn1c(S)nnc1-c1cc(Cl)cc(Cl)c1", "note": "[SD-29-14]", "values": [
      {"measurement": "cytopathic effect caused by HSV-1", "setting": "HSV-1", "value": "do not show the cytopathic effect"},
      {"measurement": "HEp-2 Cell viability, Mean (percentage survival)", "setting": "HEp-2 cells; 10 μM", "value": 97.5, "unit": "%"},
      {"measurement": "HEp-2 Cell viability, Mean (percentage survival)", "setting": "HEp-2 cells; 100 μM", "value": 93.7, "unit": "%"},
      {"measurement": "expression of ICP0 protein (immunofluorescence)", "setting": "HSV-1 ICP0 protein", "value": "effectively eliminated any expression of ICP0 protein"},
      {"measurement": "total cell counts", "setting": "[1]; 10 μM", "value": "4.69e+06", "unit": "mL⁻¹"},
      {"measurement": "total cell counts", "setting": "[1]; 100 μM", "value": "5.36e+06", "unit": "mL⁻¹"},
      {"measurement": "abundance of human ANXA2", "setting": "Human Annexin A2; LC-MS, SD29-14 treatment", "value": "increased abundance"},
      {"measurement": "Annexin A2 fragment abundance", "setting": "Human Annexin A2; fragment DALNIETAIK, 10 uM", "value": 317727.9},
      {"measurement": "Annexin A2 fragment abundance", "setting": "Human Annexin A2; fragment DALNIETAIK, 100 uM", "value": 130507.6},
      {"measurement": "Abundance ratio 1", "setting": "Human Annexin A2; fragment DALNIETAIK", "value": 7.765},
      {"measurement": "Abundance ratio 2", "setting": "Human Annexin A2; fragment DALNIETAIK", "value": 3.19},
      {"measurement": "Annexin A2 fragment abundance", "setting": "Human Annexin A2; fragment GVDEVTIVNILTNR, 10 uM", "value": 133381},
      {"measurement": "Annexin A2 fragment abundance", "setting": "Human Annexin A2; fragment GVDEVTIVNILTNR, 100 uM", "value": 9540},
      {"measurement": "Abundance ratio 1", "setting": "Human Annexin A2; fragment GVDEVTIVNILTNR", "value": ">100"},
      {"measurement": "Abundance ratio 2", "setting": "Human Annexin A2; fragment GVDEVTIVNILTNR", "value": ">100"},
      {"measurement": "Annexin A2 fragment abundance", "setting": "Human Annexin A2; fragment TNQELQEINR, 10 uM", "value": 462054},
      {"measurement": "Annexin A2 fragment abundance", "setting": "Human Annexin A2; fragment TNQELQEINR, 100 uM", "value": 190293},
      {"measurement": "Abundance ratio 1", "setting": "Human Annexin A2; fragment TNQELQEINR", "value": 10.502},
      {"measurement": "Abundance ratio 2", "setting": "Human Annexin A2; fragment TNQELQEINR", "value": 4.325},
      {"measurement": "ABA-induced RACK1A Y248 phosphorylation", "setting": "[2]", "value": "prevented the ABA-induced Y248 phosphorylation"}
    ]},
    {"smiles": "Nn1c(S)nnc1-c1ccc(F)cc1", "note": "[SD-29]", "values": [
      {"measurement": "RACK1 protein expression under salt stress", "setting": "RACK1 protein expression", "value": "inhibited RACK1 protein expression"},
      {"measurement": "HEp-2 Cell viability, Mean (percentage survival)", "setting": "HEp-2 cells; 10 μM", "value": 94.0, "unit": "%"},
      {"measurement": "HEp-2 Cell viability, Mean (percentage survival)", "setting": "HEp-2 cells; 100 μM", "value": 92.7, "unit": "%"},
      {"measurement": "production of RACK1", "setting": "RACK1", "value": "reduced the production of RACK1"},
      {"measurement": "viral protein levels (ICP0, ICP8, gD)", "setting": "[3]", "value": "lower than that of DMSO- or SD-29-12-treated HEp-2 cells"},
      {"measurement": "Plaque formation unit (pfu)", "setting": "HSV-1 strain 17; 0 hpl", "value": "0 ± 0", "unit": "PFU/mL"},
      {"measurement": "Plaque formation unit (pfu)", "setting": "HSV-1 strain 17; 6 hpl", "value": "0 ± 0", "unit": "PFU/mL"},
      {"measurement": "ABA-induced RACK1A Y248 phosphorylation", "setting": "[2]", "value": "prevented the ABA-induced Y248 phosphorylation"}
    ]}
  ]
}
